pIC50: −log10 of the molar value.
Target: T1, human p38 kinase alpha (Homo sapiens, UniProt Q16539)
T1 construct: GST (N, cleaved yes); made in house; host or cells: E. coli DH10B
Experiment: p38 kinase in vitro assay, phosphorylation of biotinylated PHAS-I with 32P-ATP
Type: biochemical
Conditions: in vitro P38-alpha kinase; read-out: P38 alpha kinase IC50

T1 sequence (Q16539 whole entry): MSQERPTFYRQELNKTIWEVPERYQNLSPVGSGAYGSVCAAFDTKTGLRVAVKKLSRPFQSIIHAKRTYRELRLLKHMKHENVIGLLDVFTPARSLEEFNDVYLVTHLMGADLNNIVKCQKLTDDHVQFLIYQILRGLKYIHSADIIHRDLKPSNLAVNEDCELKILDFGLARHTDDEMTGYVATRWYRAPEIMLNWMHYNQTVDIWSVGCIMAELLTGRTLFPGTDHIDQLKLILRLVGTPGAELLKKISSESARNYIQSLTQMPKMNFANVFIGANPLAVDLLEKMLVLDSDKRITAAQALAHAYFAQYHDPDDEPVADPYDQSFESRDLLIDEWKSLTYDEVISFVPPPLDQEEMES

`O=C(NCCCc1[nH]nc(-c2ccc(F)cc2)c1-c1ccncc1)c1ccc(F)cc1C(F)(F)F` [Example B-1340] and `O=C(NCCCc1[nH]nc(-c2ccc(F)cc2)c1-c1ccncc1)c1ccc(F)cc1F` [Example B-1353] are within 0.2 log units of each other in pIC50: 7.37 for the first, 7.21 for the second.

First: O=C(NCCCc1[nH]nc(-c2ccc(F)cc2)c1-c1ccncc1)c1ccc(F)c(C(F)(F)F)c1 [Example B-1341]
Second: O=C(NCCCc1[nH]nc(-c2ccc(F)cc2)c1-c1ccncc1)c1cc(F)cc(C(F)(F)F)c1 [Example B-1342]
The pIC50 of the first is 0.22 log units lower: 6.38 for the first, 6.60 for the second.

`O=C(NCCCc1[nH]nc(-c2ccc(F)cc2)c1-c1ccncc1)c1ccccc1Cl` [Example B-1343] and `O=C(NCCCc1[nH]nc(-c2ccc(F)cc2)c1-c1ccncc1)c1ccccc1F` [Example B-1351] are within 0.2 log units of each other in pIC50: 7.19 for the first, 7.17 for the second.

Compared with `Cc1cccc(C(=O)NCCCc2[nH]nc(-c3ccc(F)cc3)c2-c2ccncc2)c1` [Example B-1344], `O=C(NCCCc1[nH]nc(-c2ccc(F)cc2)c1-c1ccncc1)c1cccc(F)c1` [Example B-1346] is 0.48 log units lower in pIC50: 7.85 for the first, 7.37 for the second. The first is the more potent here.

Going from `O=C(NCCCc1[nH]nc(-c2ccc(F)cc2)c1-c1ccncc1)c1ccc(Cl)cc1Cl` [Example B-1345] to `O=C(NCCCc1[nH]nc(-c2ccc(F)cc2)c1-c1ccncc1)c1c(Cl)cccc1Cl` [Example B-1348], the pIC50 rises from 6.57 to 8.05 (1.48 log units). The second is the more potent here.

Compared with `O=C(NCCCc1[nH]nc(-c2ccc(F)cc2)c1-c1ccncc1)c1cccc(F)c1F` [Example B-1347], `O=C(NCCCc1[nH]nc(-c2ccc(F)cc2)c1-c1ccncc1)c1c(F)cccc1F` [Example B-1352] is 0.21 log units higher in pIC50: 7.68 for the first, 7.89 for the second.

First: O=C(NCCCc1[nH]nc(-c2ccc(F)cc2)c1-c1ccncc1)c1cc(F)ccc1F [Example B-1349]
Second: O=C(NCCCc1[nH]nc(-c2ccc(F)cc2)c1-c1ccncc1)c1cc(F)c(F)cc1F [Example B-1350]
The pIC50 of the first is 0.29 log units lower: 7.43 for the first, 7.72 for the second. The second is the more potent here.

Compared with `O=C(NCCCc1[nH]nc(-c2ccc(F)cc2)c1-c1ccncc1)c1cccc(Cl)c1` [Example B-1354], `O=C(NCCCc1[nH]nc(-c2ccc(F)cc2)c1-c1ccncc1)c1ccccc1Br` [Example B-1355] is 0.74 log units lower in pIC50: 7.89 for the first, 7.15 for the second. The first is the more potent here.

Compared with `O=C(NCCCc1[nH]nc(-c2ccc(F)cc2)c1-c1ccncc1)c1ccc(C(F)(F)F)cc1` [Example B-1356], `O=C(NCCCc1[nH]nc(-c2ccc(F)cc2)c1-c1ccncc1)c1cccs1` [Example B-1357] is 0.49 log units lower in pIC50: 7.23 for the first, 6.74 for the second.

Compared with `Cc1noc(C)c1C(=O)NCCCc1[nH]nc(-c2ccc(F)cc2)c1-c1ccncc1` [Example B-1358], `Cc1noc(C)c1C(=O)N1CCC(c2[nH]nc(-c3ccc(F)cc3)c2-c2ccncc2)CC1` [Example B-1403] is 1.46 log units lower in pIC50: 6.80 for the first, 5.34 for the second.

First: O=C(c1ccccc1I)N1CCC(c2[nH]nc(-c3ccc(F)cc3)c2-c2ccncc2)CC1 [Example B-1359]
Second: O=C(c1ccccc1Br)N1CCC(c2[nH]nc(-c3ccc(F)cc3)c2-c2ccncc2)CC1 [Example B-1398]
The pIC50 of the first is 2.13 log units higher: 8.30 for the first, 6.17 for the second.

Compared with `CC(C)C(=O)N1CCC(c2[nH]nc(-c3ccc(F)cc3)c2-c2ccncc2)CC1` [Example B-1361], `CC(C)OC(=O)N1CCC(c2[nH]nc(-c3ccc(F)cc3)c2-c2ccncc2)CC1` [Example B-1425] is 0.47 log units lower in pIC50: 7.52 for the first, 7.05 for the second. The first is the more potent here.

Going from `C=CCOC(=O)N1CCC(c2[nH]nc(-c3ccc(F)cc3)c2-c2ccncc2)CC1` [Example B-1362] to `CCOC(=O)N1CCC(c2[nH]nc(-c3ccc(F)cc3)c2-c2ccncc2)CC1` [Example B-1422], the pIC50 falls from 8.52 to 6.24 (2.28 log units).

First: O=C(c1cccc(Br)c1)N1CCC(c2[nH]nc(-c3ccc(F)cc3)c2-c2ccncc2)CC1 [Example B-1365]
Second: O=C(c1cccc(F)c1)N1CCC(c2[nH]nc(-c3ccc(F)cc3)c2-c2ccncc2)CC1 [Example B-1393]
The pIC50 of the first is 1.27 log units higher: 6.77 for the first, 5.50 for the second. The first is the more potent here.

`O=C(c1ccno1)N1CCC(c2[nH]nc(-c3ccc(F)cc3)c2-c2ccncc2)CC1` [Example B-1367] and `O=C(c1ccco1)N1CCC(c2[nH]nc(-c3ccc(F)cc3)c2-c2ccncc2)CC1` [Example B-1383] cannot be ordered by pIC50: > 7.00 for the first, 8.92 for the second.

Compared with `COc1cccc(C(=O)N2CCC(c3[nH]nc(-c4ccc(F)cc4)c3-c3ccncc3)CC2)c1` [Example B-1369], `Cc1cccc(C(=O)N2CCC(c3[nH]nc(-c4ccc(F)cc4)c3-c3ccncc3)CC2)c1` [Example B-1395] is lower in pIC50: > 7.00 for the first, 5.83 for the second.

Going from `Cc1ccc(C(=O)N2CCC(c3[nH]nc(-c4ccc(F)cc4)c3-c3ccncc3)CC2)cc1` [Example B-1371] to `COc1ccc(C(=O)N2CCC(c3[nH]nc(-c4ccc(F)cc4)c3-c3ccncc3)CC2)cc1` [Example B-1391], the pIC50 rises from 7.22 to 7.80 (0.58 log units). The second is the more potent here.

`O=C(c1ccncc1)N1CCC(c2[nH]nc(-c3ccc(F)cc3)c2-c2ccncc2)CC1` [Example B-1373] and `O=C(c1cccnc1)N1CCC(c2[nH]nc(-c3ccc(F)cc3)c2-c2ccncc2)CC1` [Example B-1387] cannot be ordered by pIC50: 7.80 for the first, > 7.00 for the second.

`O=S(=O)(Cc1ccccc1)N1CCC(c2[nH]nc(-c3ccc(F)cc3)c2-c2ccncc2)CC1` [Example B-1374] and `O=C(OCc1ccccc1)N1CCC(c2[nH]nc(-c3ccc(F)cc3)c2-c2ccncc2)CC1` [Example B-1428] cannot be ordered by pIC50: > 7.00 for the first, > 7.00 for the second.

`CNC(=O)N1CCC(c2[nH]nc(-c3ccc(F)cc3)c2-c2ccncc2)CC1` [Example B-1378] and `CCC(=O)N1CCC(c2[nH]nc(-c3ccc(F)cc3)c2-c2ccncc2)CC1` [Example B-1420] cannot be ordered by pIC50: 7.70 for the first, > 7.00 for the second.

`Cc1cccc(C)c1NC(=O)N1CCC(c2[nH]nc(-c3ccc(F)cc3)c2-c2ccncc2)CC1` [Example B-1380] and `Cc1ccccc1C(=O)N1CCC(c2[nH]nc(-c3ccc(F)cc3)c2-c2ccncc2)CC1` [Example B-1400] cannot be ordered by pIC50: > 7.00 for the first, 7.62 for the second.

Compared with `O=C(c1ccccc1)N1CCC(c2[nH]nc(-c3ccc(F)cc3)c2-c2ccncc2)CC1` [Example B-1385], `O=C(c1cccc(Cl)c1)N1CCC(c2[nH]nc(-c3ccc(F)cc3)c2-c2ccncc2)CC1` [Example B-1394] is lower in pIC50: > 7.00 for the first, 6.49 for the second.

Compared with `O=C(c1ccc(C(F)(F)F)cc1)N1CCC(c2[nH]nc(-c3ccc(F)cc3)c2-c2ccncc2)CC1` [Example B-1390], `O=C(c1cc(C(F)(F)F)ccc1F)N1CCC(c2[nH]nc(-c3ccc(F)cc3)c2-c2ccncc2)CC1` [Example B-1405] is lower in pIC50: > 7.00 for the first, 6.55 for the second.

First: N#Cc1ccc(C(=O)N2CCC(c3[nH]nc(-c4ccc(F)cc4)c3-c3ccncc3)CC2)cc1 [Example B-1392]
Second: N#Cc1cccc(C(=O)N2CCC(c3[nH]nc(-c4ccc(F)cc4)c3-c3ccncc3)CC2)c1 [Example B-1396]
The pIC50 of the first is 1.42 log units higher: 7.23 for the first, 5.81 for the second. The first is the more potent here.

First: O=C(c1ccccc1C(F)(F)F)N1CCC(c2[nH]nc(-c3ccc(F)cc3)c2-c2ccncc2)CC1 [Example B-1399]
Second: O=C(c1cccc(C(F)(F)F)c1F)N1CCC(c2[nH]nc(-c3ccc(F)cc3)c2-c2ccncc2)CC1 [Example B-1407]
The pIC50 of the first is 0.45 log units higher: 6.85 for the first, 6.40 for the second.

`O=C(c1c(F)cccc1F)N1CCC(c2[nH]nc(-c3ccc(F)cc3)c2-c2ccncc2)CC1` [Example B-1401] and `O=C(c1cccc(F)c1F)N1CCC(c2[nH]nc(-c3ccc(F)cc3)c2-c2ccncc2)CC1` [Example B-1411] cannot be ordered by pIC50: 7.48 for the first, > 7.00 for the second.

`O=C(c1cc(F)ccc1F)N1CCC(c2[nH]nc(-c3ccc(F)cc3)c2-c2ccncc2)CC1` [Example B-1402] and `O=C(c1ccc(F)cc1F)N1CCC(c2[nH]nc(-c3ccc(F)cc3)c2-c2ccncc2)CC1` [Example B-1412] are within 0.2 log units of each other in pIC50: 6.92 for the first, 7.01 for the second.

Going from `O=C(c1c(F)cccc1C(F)(F)F)N1CCC(c2[nH]nc(-c3ccc(F)cc3)c2-c2ccncc2)CC1` [Example B-1404] to `O=C(c1ccc(F)c(C(F)(F)F)c1)N1CCC(c2[nH]nc(-c3ccc(F)cc3)c2-c2ccncc2)CC1` [Example B-1408], the pIC50 rises from 6.22 to 6.57 (0.35 log units).

Compared with `O=C(c1ccc(C(F)(F)F)cc1F)N1CCC(c2[nH]nc(-c3ccc(F)cc3)c2-c2ccncc2)CC1` [Example B-1406], `O=C(c1ccc(F)cc1C(F)(F)F)N1CCC(c2[nH]nc(-c3ccc(F)cc3)c2-c2ccncc2)CC1` [Example B-1410] is higher in pIC50: 5.86 for the first, > 7.00 for the second.

First: O=C(c1cc(F)cc(C(F)(F)F)c1)N1CCC(c2[nH]nc(-c3ccc(F)cc3)c2-c2ccncc2)CC1 [Example B-1409]
Second: O=C(c1cc(F)cc(F)c1)N1CCC(c2[nH]nc(-c3ccc(F)cc3)c2-c2ccncc2)CC1 [Example B-1415]
The pIC50 of the first is higher: > 7.00 for the first, 5.85 for the second. The first is the more potent here.

Going from `O=C(c1c(Cl)cccc1Cl)N1CCC(c2[nH]nc(-c3ccc(F)cc3)c2-c2ccncc2)CC1` [Example B-1413] to `O=C(c1cccc(Cl)c1Cl)N1CCC(c2[nH]nc(-c3ccc(F)cc3)c2-c2ccncc2)CC1` [Example B-1416], the pIC50 falls from 7.80 to 6.85 (0.95 log units). The first is the more potent here.

First: O=C(c1ccc(F)c(F)c1)N1CCC(c2[nH]nc(-c3ccc(F)cc3)c2-c2ccncc2)CC1 [Example B-1414]
Second: O=C(c1ccc(Cl)c(Cl)c1)N1CCC(c2[nH]nc(-c3ccc(F)cc3)c2-c2ccncc2)CC1 [Example B-1418]
The pIC50 of the first is 1.60 log units higher: 7.60 for the first, 6.00 for the second.

Compared with `O=C(c1ccc(Cl)cc1Cl)N1CCC(c2[nH]nc(-c3ccc(F)cc3)c2-c2ccncc2)CC1` [Example B-1417], `O=C(c1cc(Cl)cc(Cl)c1)N1CCC(c2[nH]nc(-c3ccc(F)cc3)c2-c2ccncc2)CC1` [Example B-1419] is 0.64 log units lower in pIC50: 7.16 for the first, 6.52 for the second. The first is the more potent here.

`CC(C)(C)C(=O)N1CCC(c2[nH]nc(-c3ccc(F)cc3)c2-c2ccncc2)CC1` [Example B-1421] and `O=C(N1CCC(c2[nH]nc(-c3ccc(F)cc3)c2-c2ccncc2)CC1)C(F)(F)F` [Example B-1429] cannot be ordered by pIC50: 7.85 for the first, > 7.00 for the second.

First: CCCOC(=O)N1CCC(c2[nH]nc(-c3ccc(F)cc3)c2-c2ccncc2)CC1 [Example B-1423]
Second: CC(C)COC(=O)N1CCC(c2[nH]nc(-c3ccc(F)cc3)c2-c2ccncc2)CC1 [Example B-1424]
The pIC50 of the first is 0.27 log units lower: 5.80 for the first, 6.07 for the second. The second is the more potent here.

First: C=CCOC(=O)N1CCC(c2[nH]nc(-c3ccc(F)cc3)c2-c2ccncc2)CC1 [Example B-1426]
Second: C#CCOC(=O)N1CCC(c2[nH]nc(-c3ccc(F)cc3)c2-c2ccncc2)CC1 [Example B-1427]
The pIC50 of the first is lower: 6.72 for the first, > 7.00 for the second.

First: CCCCS(=O)(=O)N1CCC(c2[nH]nc(-c3ccc(F)cc3)c2-c2ccncc2)CC1 [Example B-1430]
Second: CCCS(=O)(=O)N1CCC(c2[nH]nc(-c3ccc(F)cc3)c2-c2ccncc2)CC1 [Example B-1431]
The pIC50 of the first is 0.32 log units lower: 6.12 for the first, 6.44 for the second. The second is the more potent here.

— US6979686B1, “Substituted pyrazoles as p38 kinase inhibitors” (Pharmacia Corporation, priority 2001, dated 2005)
